According to patent publication US20140171516A1, “GERANYLGERANYLACETONE FORMULATIONS” (COYOTE PHARMACEUTICALS, INC., priority 2012, published 2014):
Where two headings read alike, the source gives them in different places.

Columns and labels:
[1] = Intraocular GGA level, topical ocular versus oral systemic administration; type: in vivo; settings: topical ocular composition of 5% GGA versus 200 mg/kg GGA by systemic administration orally
[2] = Rat ocular pharmacokinetics study, Cohort 1: geranylgeranyl acetone concentration in eyes after topical eye drops; type: in vivo; settings: Sprague-Dawley, 0.25 mg/eye, 8 doses, average of 3 rats

levels of geranylgeranyl acetone achieved intraocularly, topical versus oral [1] | concentration at 8 h ([2]; contralateral eye, contralateral eye concentration (ng/g in Table 7), read-out: 8 h contra AVE) | concentration at 8 h ([2]; treated (ipsilateral) eye, treated eye concentration (ng/g in Table 7), read-out: 8 h ispi AVE) | Compound
about 5 fold |  |  | CC(=O)CCC=C(C)CC/C=C(\C)CC/C=C(\C)CCC=C(C)C (mixture of isomers) [GGA, Geranylgeranyl acetone]
 | 2100 ng/g | 8770 ng/g | CC(=O)CC/C=C(\C)CC/C=C(\C)CC/C=C(\C)CCC=C(C)C [CNS-102, all-trans geranylgeranyl acetone]
